Laboratory results reported in patent publication US8080657B2, “Compounds of reverse turn mimetics and the use thereof” (Choongwae Pharma Corporation, priority 2008, dated 2011).

Each compound was assayed against T1, cDNA-expressed human hepatic CYP3A4 (Homo sapiens, UniProt P08684) (assay: P450 CYP3A4 inhibitory activity screening (BFC substrate, fluorescence)). Conditions: P450 CYP3A4 inhibitory activity screening, fluorescent assay; read-out: CYP3A4 inhibition, IC50 (μM) fluorescent assay.
T1 construct: purchased BD Gentest 456202
Format: biochemical
Protocol: P450 CYP3A4 Inhibitory Activity Screening
Assay was conducted in a 200 μL volume in 96-well microtiter plates using cDNA-expressed human hepatic CYP3A4 (supersome, BD Gentest™ #456202). 7-Benzyloxy-4-trifluoromethyl-coumarin (BFC) was used as a substrate for CYP3A4. Test articles and substrate BFC were dissolved in 100% acetonitrile. The final volume of acetonitrile in the incubation mixture was less than 1% (volume/volume). Potassium phosphate buffer (pH 7.4, final concentration 0.1 M), MgCl2 (final concentration 8.3 mM), EDTA (final concentration 1.67 mM), a test article stock solution, a CYP3A4 supersome and NADPH (final concentration 0.25 mM) were added to each well. The reaction was initiated by the addition of substrate (BFC, final concentration 30 µM) after a 10 min pre-incubation at 37° C. After 10 min incubation at 37° C., the reaction was terminated by the addition of 75 μL of acetonitrile:0.5 M Tris-base=4:1 (volume/volume). Thereafter, Fluorescent signal was measured using a fluorometer. BFC metabolite, 7-hydroxy-4-trifluoromethyl-coumarin, was measured using an excitation wavelength of 409 nm and an emission wavelength of 530 nm.

T1 sequence (P08684 whole entry): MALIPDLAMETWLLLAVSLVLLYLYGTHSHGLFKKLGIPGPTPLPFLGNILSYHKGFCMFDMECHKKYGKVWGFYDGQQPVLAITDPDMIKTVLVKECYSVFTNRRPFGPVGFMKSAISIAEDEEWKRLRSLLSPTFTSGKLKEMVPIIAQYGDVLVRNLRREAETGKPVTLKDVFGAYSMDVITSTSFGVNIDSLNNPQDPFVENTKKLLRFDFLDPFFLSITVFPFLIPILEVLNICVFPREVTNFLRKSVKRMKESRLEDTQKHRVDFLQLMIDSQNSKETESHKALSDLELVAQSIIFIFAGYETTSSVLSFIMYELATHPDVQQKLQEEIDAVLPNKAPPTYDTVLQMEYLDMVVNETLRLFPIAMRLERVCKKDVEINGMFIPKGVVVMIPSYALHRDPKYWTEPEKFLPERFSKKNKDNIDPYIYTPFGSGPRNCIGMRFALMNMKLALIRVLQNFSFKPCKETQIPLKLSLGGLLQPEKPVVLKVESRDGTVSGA

Row | SMILES | IC50 [µM]
1 | C=CCN1CC(=O)N2[C@@H](Cc3ccc(O)cc3)C(=O)N(Cc3cccc(C(=O)NCCOC)c3)C[C@@H]2N1C(=O)NCc1ccccc1 [compound 38] | 34.6

Same assay, conditions: human CYP3A4 supersome, substrate BFC, 10 min incubation at 37° C.; read-out: IC50 values of Compounds against CYP3A4 activity

Row | SMILES | IC50 [µM]
2 | C=CCN1CC(=O)N2[C@@H](Cc3ccc(O)cc3)C(=O)N(Cc3cccc(C(=O)NCCOC)c3)C[C@@H]2N1C(=O)NCc1ccccc1 [Compound B] | 34.6

These compounds were tested on Wnt signaling (assay: TopFlash reporter gene bioassay in SW480 cells). Conditions: Homo sapiens, SW480, TopFlash reporter gene assay, inhibition of Wnt signaling; read-out: RGA, IC50 (μM) TopF.
Format: cell-based

Row | SMILES | IC50 [µM]
3 | C=CCN1CC(=O)N2[C@@H](Cc3ccc(O)cc3)C(=O)N(Cc3cccc(NC(=O)OC)c3)C[C@@H]2N1C(=O)NCc1ccccc1 [compound 5] | 0.16 ± 0.08

The compounds below were run on MV-4-11 cells (assay: Cell growth inhibition assay on AML cancer cells (CellTiter 96)). Conditions: Homo sapiens, MV4-11; MV-4-11 cells, 72 hours; read-out: GI50, cell growth inhibition of MV-4-11 AML cancer cells.
Format: cell-based
Protocol: The lower GI50 value means the higher inhibition activity.
Cell Growth Inhibition Activity on AML Cancer Cells (Cell Growth Inhibition Assay)
Cell growth Inhibition assay was performed to investigate the rate of inhibition of cell proliferation by the test compounds. MV-4-11 (human, Acute Myeloid Leukemia cell line) cells were cultured in Iscove's modified Dulbecco's medium (IMDM) including 10% fetal bovine serum (FBS), 1× penicillin/streptomycin (10,000 units/ml Penicillin, […] Streptomycin in 0.85% NaCl). MV-4-11 cells were harvested with IMDM medium and 5×10^4 cells/well were transferred to each well of 96 well culture plates (Nunc, #167008). The test compounds were treated with the serial dilution and duplicated for each concentration. For the serial dilution, the test compounds were repeatedly diluted with the same volume of media onto 96-well assay block (costar, #3956). After the dilution, each compound was added to each well. The background absorbance was also measured during the test compounds treatment by adding the IMDM media in replacement of test compound to the negative control plate. The plates were incubated for 3 days (72 hours) at 37° C. in the humidified incubator containing 5% CO2. On the last day, 20 μL of CellTiter 96 Aqueous One Solution (Promega #G3581) was added to the culture in each well and the plates were incubated for a few hours at 37° C. in the humidified incubator containing 5% CO2. After the incubation, the absorbance of each cell was measured at 490 nm using an EnVision (Perkinelmer, USA). The GI50 values were calculated using a Prism 3.0 program.

Row | SMILES | GI50 [nM]
4 | C=CCN1CC(=O)N2[C@@H](Cc3ccc(O)cc3)C(=O)N(Cc3cccc(C(=O)NCCOC)c3)C[C@@H]2N1C(=O)NCc1ccccc1 [Compound B] | 188

Same assay, conditions: Homo sapiens, MV4-11; cell growth inhibition on AML cancer cells, MV-4-11; read-out: MV-4-11, GI50

Row | SMILES | GI50 [nM]
5 | C=CCN1CC(=O)N2[C@@H](Cc3ccc(O)cc3)C(=O)N(Cc3cccc4c3ncn4CC(N)=O)C[C@@H]2N1C(=O)NCc1ccccc1 [compound 1] | 190
6 | C=CCN1CC(=O)N2[C@@H](Cc3ccc(O)cc3)C(=O)N(Cc3cccc4c3OC(F)(F)O4)C[C@@H]2N1C(=O)NCc1ccccc1 [compound 2] | 600
7 | C=CCN1CC(=O)N2[C@@H](Cc3ccc(O)cc3)C(=O)N(Cc3csc4ccccc34)C[C@@H]2N1C(=O)NCc1ccccc1 [compound 3] | 180
8 | C=CCN1CC(=O)N2[C@@H](Cc3ccc(O)cc3)C(=O)N(Cc3cccc(NC(=O)OC)c3)C[C@@H]2N1C(=O)NCc1ccccc1 [compound 5] | 50
9 | C=CCN1CC(=O)N2[C@@H](Cc3ccc(O)cc3)C(=O)N(Cc3cccc4c(C(C)=O)c[nH]c34)C[C@@H]2N1C(=O)NCc1ccccc1 [compound 6] | 40
10 | C=CCN1CC(=O)N2[C@@H](Cc3ccc(O)cc3)C(=O)N(Cc3ccc(OC)cc3F)C[C@@H]2N1C(=O)NCc1ccccc1 [compound 10] | 1320
11 | C=CCN1CC(=O)N2[C@@H](Cc3ccc(O)cc3)C(=O)N(Cc3ccc(OC)c(Cl)c3)C[C@@H]2N1C(=O)NCc1ccccc1 [compound 11] | 1970
12 | C=CCOc1ccc(CN2C[C@H]3N(C(=O)CN(CC=C)N3C(=O)NCc3ccccc3)[C@@H](Cc3ccc(O)cc3)C2=O)cc1 [compound 12] | 2990
13 | C=CCN1CC(=O)N2[C@@H](Cc3ccc(O)cc3)C(=O)N(Cc3ccccc3N3CCCC3)C[C@@H]2N1C(=O)NCc1ccccc1 [compound 13] | 2010
14 | C=CCN1CC(=O)N2[C@@H](Cc3ccc(O)cc3)C(=O)N(Cc3ccccc3SC)C[C@@H]2N1C(=O)NCc1ccccc1 [compound 14] | 160
15 | C=CCN1CC(=O)N2[C@@H](Cc3ccc(O)cc3)C(=O)N(Cc3cccc(OC)c3OC)C[C@@H]2N1C(=O)NCc1ccccc1 [compound 15] | 2140
16 | C=CCN1CC(=O)N2[C@@H](Cc3ccc(O)cc3)C(=O)N(Cc3cccc(C(C)(C)C)c3OC)C[C@@H]2N1C(=O)NCc1ccccc1 [compound 16] | 630
17 | C=CCN1CC(=O)N2[C@@H](Cc3ccc(O)cc3)C(=O)N(Cc3cccc(C(N)=O)c3)C[C@@H]2N1C(=O)NCc1ccccc1 [compound 17] | 360
18 | C=CCN1CC(=O)N2[C@@H](Cc3ccc(O)cc3)C(=O)N(Cc3cccc(C(=O)NOC)c3)C[C@@H]2N1C(=O)NCc1ccccc1 [compound 18] | 360
19 | C=CCN1CC(=O)N2[C@@H](Cc3ccc(O)cc3)C(=O)N(Cc3cccc(C(=O)NCCO)c3)C[C@@H]2N1C(=O)NCc1ccccc1 [compound 19] | 450
20 | C=CCN1CC(=O)N2[C@@H](Cc3ccc(O)cc3)C(=O)N(Cc3ccc(OC)c(-c4ccncc4)c3)C[C@@H]2N1C(=O)NCc1ccccc1 [compound 20] | 2240
21 | C=CCN1CC(=O)N2[C@@H](Cc3ccc(O)cc3)C(=O)N(Cc3ccc(F)c(Br)c3)C[C@@H]2N1C(=O)NCc1ccccc1 [compound 21] | 300
22 | C=CCN1CC(=O)N2[C@@H](Cc3ccc(O)cc3)C(=O)N(Cc3cccc(-c4cccnc4OC)c3)C[C@@H]2N1C(=O)NCc1ccccc1 [compound 22] | 740
23 | C=CCN1CC(=O)N2[C@@H](Cc3ccc(O)cc3)C(=O)N(Cc3cccc(C(=O)NNC(=O)OC(C)(C)C)c3)C[C@@H]2N1C(=O)NCc1ccccc1 [compound 23] | 960
24 | C=CCN1CC(=O)N2[C@@H](Cc3ccc(O)cc3)C(=O)N(Cc3cccc(C(=O)NN)c3)C[C@@H]2N1C(=O)NCc1ccccc1 [compound 24] | 2030

Row | SMILES | GI50 [nM]
25 | C=CCN1CC(=O)N2[C@@H](Cc3ccc(O)cc3)C(=O)N(Cc3ccc(F)c(-c4cccnc4)c3)C[C@@H]2N1C(=O)NCc1ccccc1 [compound 25] | 240
26 | C=CCN1CC(=O)N2[C@@H](Cc3ccc(O)cc3)C(=O)N(Cc3cccc(C(=O)N4CCCCC4)c3)C[C@@H]2N1C(=O)NCc1ccccc1 [compound 26] | 780
27 | C=CCN1CC(=O)N2[C@@H](Cc3ccc(O)cc3)C(=O)N(Cc3cccc(C(=O)N4CCCC4)c3)C[C@@H]2N1C(=O)NCc1ccccc1 [compound 27] | 1110
28 | C=CCN1CC(=O)N2[C@@H](Cc3ccc(O)cc3)C(=O)N(Cc3ccccc3-n3cnnn3)C[C@@H]2N1C(=O)NCc1ccccc1 [compound 28] | 1350
29 | C=CCN1CC(=O)N2[C@@H](Cc3ccc(O)cc3)C(=O)N(Cc3cccc(C(=O)NC)c3)C[C@@H]2N1C(=O)NCc1ccccc1 [compound 29] | 390
30 | C=CCN1CC(=O)N2[C@@H](Cc3ccc(O)cc3)C(=O)N(Cc3cccc(C(=O)N(C)C)c3)C[C@@H]2N1C(=O)NCc1ccccc1 [compound 30] | 820
31 | C=CCN1CC(=O)N2[C@@H](Cc3ccc(O)cc3)C(=O)N(Cc3cccc(C(N)=O)c3[N+](=O)[O-])C[C@@H]2N1C(=O)NCc1ccccc1 [compound 31] | 5750
32 | C=CCN1CC(=O)N2[C@@H](Cc3ccc(O)cc3)C(=O)N(Cc3ccc(CP(=O)(O)O)cc3)C[C@@H]2N1C(=O)NCc1ccccc1 [compound 32] | > 50000
33 | C=CCN1CC(=O)N2[C@@H](Cc3ccc(O)cc3)C(=O)N(Cc3cccc(C(=O)NCCCOCCCC)c3)C[C@@H]2N1C(=O)NCc1ccccc1 [compound 33] | 650
34 | C=CCN1CC(=O)N2[C@@H](Cc3ccc(O)cc3)C(=O)N(Cc3cccc(Cl)c3N(C)C)C[C@@H]2N1C(=O)NCc1ccccc1 [compound 34] | 1250
35 | C=CCN1CC(=O)N2[C@@H](Cc3ccc(O)cc3)C(=O)N(Cc3cccc(-c4ncc[nH]4)c3)C[C@@H]2N1C(=O)NCc1ccccc1 [compound 35] | 1120
36 | C=CCN1CC(=O)N2[C@@H](Cc3ccc(O)cc3)C(=O)N(Cc3cccc(C(=O)NCCC)c3)C[C@@H]2N1C(=O)NCc1ccccc1 [compound 37] | 240
37 | C=CCN1CC(=O)N2[C@@H](Cc3ccc(O)cc3)C(=O)N(Cc3cccc(C(=O)NCCOC)c3)C[C@@H]2N1C(=O)NCc1ccccc1 [compound 38] | 180
38 | C=CCN1CC(=O)N2[C@@H](Cc3ccc(O)cc3)C(=O)N(Cc3cccc(C(=O)NCC4CCCCC4)c3)C[C@@H]2N1C(=O)NCc1ccccc1 [compound 39] | 960
39 | C=CCN1CC(=O)N2[C@@H](Cc3ccc(O)cc3)C(=O)N(Cc3cccc(C(=O)NCC4CC4)c3)C[C@@H]2N1C(=O)NCc1ccccc1 [compound 40] | 270
40 | C=CCN1CC(=O)N2[C@@H](Cc3ccc(O)cc3)C(=O)N(Cc3cccc(C(=O)Nc4cc[nH]n4)c3)C[C@@H]2N1C(=O)NCc1ccccc1 [compound 41] | 1560
41 | C=CCN1CC(=O)N2[C@@H](Cc3ccc(O)cc3)C(=O)N(Cc3cccc(C(=O)OCC)n3)C[C@@H]2N1C(=O)NCc1ccccc1 [compound 42] | 640
42 | C=CCN1CC(=O)N2[C@@H](Cc3ccc(O)cc3)C(=O)N(Cc3cccc(C(N)=O)n3)C[C@@H]2N1C(=O)NCc1ccccc1 [compound 43] | 310
43 | C=CCN1CC(=O)N2[C@@H](Cc3ccc(O)cc3)C(=O)N(Cc3cccc(C(=O)NC)n3)C[C@@H]2N1C(=O)NCc1ccccc1 [compound 44] | 550
44 | C=CCN1CC(=O)N2[C@@H](Cc3ccc(O)cc3)C(=O)N(Cc3cccc(C(=O)N(C)C)n3)C[C@@H]2N1C(=O)NCc1ccccc1 [compound 45] | 2790
